Paper PMC4762250, “Novel cis-selective and non-epimerisable C3 hydroxy azapodophyllotoxins targeting microtubules in cancer cells” (European Journal of Medicinal Chemistry, 2016)
Like-named read-outs stand apart in the source and are kept apart here.

Key:
[1] = tested on: human breast cancer cell line MCF-7; assay: Oncotest propidium iodide monolayer cell proliferation assay, MCF-7; assay type: cell-based; conditions: mean absolute IC50, 96 h treatment, propidium iodide endpoint, triplicate, read-out: MCF-7 IC50
Experimental: (§1) The anticancer activity of compounds (8a-q) was evaluated using the Oncotest monolayer assay in the human prostate cancer cell line 22Rv1 and the human breast cancer cell line MCF-7, as an outsourced service. […] Antitumour activity was assessed after four days of treatment with the compounds using a propidium iodide based monolayer assay. Potency is expressed as absolute IC50 values, calculated by non-linear regression analysis following testing in triplicate. The seventeen inhibitors were tested at 10 concentrations in half-log increments up to 100 μM in triplicate.
(§2) A modified propidium iodide (PI) based monolayer assay was used to assess the anti-cancer activity of the compounds. Briefly, cells were harvested from exponential phase cultures, counted and plated in 96-well flat-bottom microtiter plates at a cell density of 8.000–12.000 cells/well. After a 24 h recovery period to allow the cells to resume exponential growth, 10 μl of culture medium (six control wells/plate) or culture medium with test compound were added. The compounds were applied in half-log increments at 10 concentrations in triplicate. After a total treatment period of 96 h, cells were washed with 200 μl PBS to remove dead cells and debris. Then, 200 μl of a solution containing 7 μg/mL propidium iodide (PI) was added. After an incubation period of 1–2 h at room temperature, fluorescence (FU) was measured using the EnSpire Multimode Plate Reader (excitation λ = 530 nm, emission λ = 620 nm) to quantify the amount of attached viable cells. IC50 values were calculated by 4-parameter non-linear curve fit using Oncotest Warehouse Software. For calculation of mean IC50 values the geometric mean was used.

[2] = tested on: human prostate cancer cell line 22Rv1; assay: Oncotest propidium iodide monolayer cell proliferation assay, 22Rv1; assay type: cell-based; conditions: mean absolute IC50, 96 h treatment, propidium iodide endpoint, triplicate
Experimental: as §1, §2

MCF-7 and 22Rv1 = assay: Oncotest monolayer assay, results stated over both cell lines; assay type: cell-based, human; conditions: cell viability, ten concentrations up to 100 μM, Fig. 3
Experimental: as §1, §2

[3] = tested on: microtubules in MCF-7 cells; assay: Microtubule immunofluorescence assay (α-tubulin, confocal microscopy); assay type: cell-based, human; conditions: 250 nM, 6 h
Experimental: In order to investigate the microtubule-destabilising ability of these analogues, experiments were conducted to determine their effects on the subcellular organisation of microtubules in vitro [27]. […] The nuclei of control interphase cells were relatively monomorphic. […] Analogue treated cells in interphase featured shorter microtubule filaments and slightly more disordered microtubule networks than control cells.
Following cell seeding (42 h) the media was replaced with fresh complete media containing 250 nM of podophyllotoxin, compound 8e and 8b or 0.01% DMSO. The cells were treated for 6 h with drug or diluent control then subjected to downstream immunofluorescence analysis (see tubulin immunofluorescence protocol).
The media was aspirated and the cells were washed once in ice-cold PBS before being fixed in 100% methanol at −20 °C for 10 min. The cells were then washed thrice in PBS and stored overnight at 4 °C. The following day cells were incubated in 150 μL of blocking solution (2% FBS [v/v], 2% BSA [w/v] in PBS pH 7.4) for 30 min. Blocking was followed by 1 h incubation with 100 μl of mouse anti-α tubulin antibody diluted 1:2000 in blocking solution. Cells were then washed 3 × 5min in PBS before being incubated with Alexa488 labelled, anti-mouse secondary antibody (1:400) and Hoechst 33342 (1 μg/ml) for 30 min. The cells were washed a final 3 × 5 min in PBS before coverslips were dipped once into PBS, once into dH2O and mounted onto glass slides with 12 μL of mounting medium (Dako oil). Three independent experiments were carried out in duplicate.
Confocal fluorescence microscopy analysis was conducted on a Leica SP5 inverted confocal laser scanning microscope. The microscope was equipped with a 63x oil-immersion objective and the 405 and 488 nm lasers were used. Gain and offset settings were optimised for each fluorescent channel within an experiment. Images were recorded using the sequential scanning mode to prevent fluorescence channel crosstalk/bleed-through. Images were scanned at 100 Hz with a line average of three to reduce noise.

[4] = tested on: microtubules in MCF-7 cells; assay: Microtubule repolymerisation assay, first variation (6 h pre-treatment); assay type: cell-based, human; conditions: 250 nM 6 h pre-treatment, 30 min on ice, rewarmed 37 °C 30 min
Experimental: (§3) Cold depolymerisation of the tubulin cytoskeleton in vitro, including in MCF-7 cells, can be achieved by relatively short incubations at 4 °C [27], [28], [29]. To test the ability of the compounds to impair microtubule polymerisation, following depolymerisation, two variations of a tubulin re-polymerisation assay were performed. In the first, MCF-7 cells were pre-treated for 6 h with 250 nM of the compounds before being incubated on ice for 30 min then rewarmed to 37 °C for a further 30 min. In the second variation, cells were first incubated on ice then rewarmed to 37 °C in the presence of the compounds (250 nM, 30 min total treatment time). Samples of cells were fixed post-cold depolymerisation and post-warm repolymerisation. In both variations, immunofluorescence for α-tubulin was performed and cells were imaged by confocal microscopy (Fig. 6 and 7). In control and treated cells, incubation on ice for 30 min led to total loss of filamentous tubulin and the protein was diffusely scattered throughout the cytoplasm. […] Upon increasing the temperature to 37 °C for 30 min there was clear repolymerisation of the microtubule network.
Following cell seeding (42 h) the media was replaced with drug (or diluent control) containing complete media and cells were treated for 6 h with 250 nM of podophyllotoxin, compound 8e, 8b or 0.01% DMSO. The plates were then placed on ice and cells were incubated at 4 °C for 30 min to depolymerise the tubulin cytoskeleton, [28], [30]. One set of cover slips for each treatment condition was prepared for tubulin immunofluorescence (see protocol below) and the remaining sets of cover slips were returned to the incubator (37 °C, 5% CO2) for 30 min to allow re-polymerisation of microtubules. Tubulin immunofluorescence was performed after the cells had been rewarmed for 30 min (see below). […]
(§4) Confocal fluorescence microscopy analysis was conducted on a Leica SP5 inverted confocal laser scanning microscope. […] Images were recorded using the sequential scanning mode to prevent fluorescence channel crosstalk/bleed-through. […]

[5] = tested on: microtubules in MCF-7 cells; assay: Microtubule repolymerisation assay, second variation (no pre-treatment); assay type: cell-based, human; conditions: 30 min on ice, then rewarmed 37 °C 30 min in presence of 250 nM compound
Experimental: as §3
Following cell seeding (42 h), the plates were placed on ice for 30 min to cold-depolymerise the tubulin cytoskeleton. Control cold-depolymerised coverslips were then immediately prepared for tubulin immunofluorescence and the remaining coverslips were rewarmed and treated with 250 nM of podophyllotoxin, compound 8e, 8b or 0.01% DMSO for 30 min (37 °C, 5% CO2). Together with the controls these were then subjected to tubulin immunofluorescence.
The media was aspirated and the cells were washed once in ice-cold PBS before being fixed in 100% methanol at −20 °C for 10 min. The cells were then washed thrice in PBS and stored overnight at 4 °C. […]
as §4

[6] = parameters: method as in PMID 3290912; conditions: cis isomer versus podophyllotoxin; cited from earlier work

Row | Structure (SMILES) | IC50 ([1]; Homo sapiens, MCF7, 96 h) [nM] | IC50 [1] [nM] | IC50 ([2]; Homo sapiens, 22Rv1, 96 h) [nM] | IC50 [2] [nM] | concentration-effect curve (MCF-7 and 22Rv1) | effect on tubulin cytoskeleton ([3]; MCF-7, interphase cells for 8e and 8b, all cells for podophyllotoxin) | induced defects in dividing cells ([3]; MCF-7 dividing cells) | repolymerisation of tubulin following cold depolymerisation [4] | repolymerisation of tubulin following cold depolymerisation [5] | less active than podophyllotoxin [6] [fold]
1 | O=C1OC[C@]2(O)Nc3c(c4cccnc4c4ncccc34)[C@@H](c3ccccc3C(F)(F)F)[C@@H]12 (mixture of isomers) [Compound 8e, (9aS, 12aR, 13R) and (9aR, 12aS, 13S) 9a-hydroxy-13-(2-(trifluoromethyl)phenyl)-9a,10,12a,13-tetrahydrofuro[3,4-b]pyrido[3,2-f][1,10]phenanthrolin-12(9H)-one] | 210 | 209 | 110 | 107 | sigmoidal concentration-effect curves with low bottom plateaus indicating total cell kill at higher test concentration | more subtle changes in the tubulin filaments and their organisation | aberrations of spindle morphology and polarity, nuclear atypia (pleomorphism, pyknosis) and uncongressed/misaligned chromosomes | the microtubule cytoskeleton was still able to reform but mitotic defects and shorter filaments | the microtubule cytoskeleton was able to reform with negligible defects | 
2 | COc1cc([C@@H]2c3cc4c(cc3[C@H](O)[C@H]3COC(=O)[C@@H]23)OCO4)cc(OC)c1OC [picropodophyllin] |  |  |  |  |  |  |  |  |  | 100
